# Columns and labels:
# [1] = target: T1, UDP-glucuronosyltransferase 1A7 (Homo sapiens, UniProt Q9HAW7); assay: Activity of human recombinant UGT1A7 expressed in insect cells assessed as enzyme mediated glucuronidation at 12.5 uM by LC-MS/MS method; assay type: ADME
# T1 sequence (Q9HAW7 whole entry): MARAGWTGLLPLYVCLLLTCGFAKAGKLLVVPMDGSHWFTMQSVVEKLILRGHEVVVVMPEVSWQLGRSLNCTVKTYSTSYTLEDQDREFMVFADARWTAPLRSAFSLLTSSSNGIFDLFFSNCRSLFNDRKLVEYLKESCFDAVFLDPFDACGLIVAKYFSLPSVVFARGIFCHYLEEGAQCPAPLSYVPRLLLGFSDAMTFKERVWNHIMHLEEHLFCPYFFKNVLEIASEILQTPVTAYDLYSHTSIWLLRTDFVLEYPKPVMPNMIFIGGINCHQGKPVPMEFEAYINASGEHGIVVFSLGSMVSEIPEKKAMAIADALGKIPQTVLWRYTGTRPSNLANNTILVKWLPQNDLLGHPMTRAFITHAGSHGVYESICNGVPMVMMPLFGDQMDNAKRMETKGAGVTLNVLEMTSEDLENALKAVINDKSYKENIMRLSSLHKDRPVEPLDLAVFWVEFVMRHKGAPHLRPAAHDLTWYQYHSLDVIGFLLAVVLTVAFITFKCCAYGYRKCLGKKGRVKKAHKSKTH
# [2] = target: T2, UDP-glucuronosyltransferase 1A6 (Homo sapiens, UniProt P19224); assay: Activity of human recombinant UGT1A6 expressed in insect cells assessed as intrinsic clearance for enzyme mediated glucuronidation per mg protein by LC-MS/MS method; assay type: ADME
# T2 sequence (P19224 whole entry): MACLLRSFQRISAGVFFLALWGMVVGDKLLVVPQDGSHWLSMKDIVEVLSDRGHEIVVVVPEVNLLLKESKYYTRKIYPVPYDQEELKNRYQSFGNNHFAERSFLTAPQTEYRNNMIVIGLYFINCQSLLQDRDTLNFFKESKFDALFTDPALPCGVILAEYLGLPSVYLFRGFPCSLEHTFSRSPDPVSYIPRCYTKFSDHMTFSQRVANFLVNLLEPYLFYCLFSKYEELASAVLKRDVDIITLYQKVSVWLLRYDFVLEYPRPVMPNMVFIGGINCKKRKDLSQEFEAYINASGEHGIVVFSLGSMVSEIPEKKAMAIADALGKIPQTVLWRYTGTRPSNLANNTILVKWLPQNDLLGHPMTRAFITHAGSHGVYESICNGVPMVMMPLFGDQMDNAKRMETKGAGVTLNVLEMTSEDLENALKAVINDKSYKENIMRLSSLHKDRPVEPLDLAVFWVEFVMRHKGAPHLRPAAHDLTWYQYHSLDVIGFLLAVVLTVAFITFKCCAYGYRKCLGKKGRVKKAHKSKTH
# [3] = target: T3, UDP-glucuronosyltransferase 1A9 (Homo sapiens, UniProt O60656); assay: Activity of human recombinant UGT1A9 expressed in insect cells assessed as intrinsic clearance for enzyme mediated glucuronidation per mg protein by LC-MS/MS method; assay type: ADME
# T3 sequence (O60656 whole entry): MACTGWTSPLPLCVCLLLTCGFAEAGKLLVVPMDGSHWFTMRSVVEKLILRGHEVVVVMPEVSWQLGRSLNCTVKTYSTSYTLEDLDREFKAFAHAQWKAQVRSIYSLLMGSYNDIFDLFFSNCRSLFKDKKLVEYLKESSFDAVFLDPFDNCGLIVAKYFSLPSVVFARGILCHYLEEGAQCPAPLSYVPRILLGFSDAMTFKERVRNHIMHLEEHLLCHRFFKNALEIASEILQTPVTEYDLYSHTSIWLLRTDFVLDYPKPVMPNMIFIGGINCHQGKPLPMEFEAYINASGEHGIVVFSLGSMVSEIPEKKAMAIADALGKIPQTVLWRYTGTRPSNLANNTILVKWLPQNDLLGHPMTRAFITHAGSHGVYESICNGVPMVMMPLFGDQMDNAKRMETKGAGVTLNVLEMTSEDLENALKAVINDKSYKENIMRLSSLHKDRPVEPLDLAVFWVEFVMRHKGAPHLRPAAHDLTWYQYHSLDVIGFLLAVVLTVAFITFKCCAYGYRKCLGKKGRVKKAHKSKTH
# [4] = Drug metabolism in human kidney microsomes assessed as drug glucuronidation in presence of 5 to 35 uM androsterone by LC-MS/MS method; assay type: ADME
# [5] = Drug metabolism in human kidney microsomes assessed as drug glucuronidation in presence of BSA by LC-MS/MS method; assay type: ADME
# [6] = Drug metabolism in human kidney microsomes assessed as intrinsic clearance for drug glucuronidation per mg tissue in presence of BSA by LC-MS/MS method; assay type: ADME
# [7] = Cmax in human at 0.5 mg/kg; assay type: ADME, organism-based; design: dose 0.5 mg/kg; settings: in vivo
# [8] = target: T4, UDP-glucuronosyltransferase 2B7 (Homo sapiens, UniProt P16662); assay: Activity of human recombinant UGT2B7 expressed in insect cells assessed as enzyme mediated glucuronidation in presence of […] naloxone by LC-MS/MS method; assay type: ADME
# T4 sequence (P16662 whole entry): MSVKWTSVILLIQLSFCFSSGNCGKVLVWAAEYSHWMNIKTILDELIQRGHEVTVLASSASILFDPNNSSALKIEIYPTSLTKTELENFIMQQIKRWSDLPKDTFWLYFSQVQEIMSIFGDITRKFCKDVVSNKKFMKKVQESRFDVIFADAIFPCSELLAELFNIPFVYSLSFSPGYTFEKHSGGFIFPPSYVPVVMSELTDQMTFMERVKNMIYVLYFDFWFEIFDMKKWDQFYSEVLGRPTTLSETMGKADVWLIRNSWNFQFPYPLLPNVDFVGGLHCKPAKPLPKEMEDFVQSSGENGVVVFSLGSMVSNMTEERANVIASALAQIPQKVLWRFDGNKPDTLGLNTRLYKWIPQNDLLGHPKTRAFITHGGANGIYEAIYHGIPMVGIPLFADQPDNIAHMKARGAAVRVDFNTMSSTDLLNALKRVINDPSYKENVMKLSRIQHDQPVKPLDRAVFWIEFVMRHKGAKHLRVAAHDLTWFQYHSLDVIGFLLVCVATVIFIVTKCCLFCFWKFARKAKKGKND
# [9] = Drug metabolism in human liver microsomes assessed as drug glucuronidation in absence of BSA by LC-MS/MS method; assay type: ADME
# [10] = Drug metabolism in human liver microsomes assessed as drug glucuronidation in presence of BSA by LC-MS/MS method; assay type: ADME
smiles,measurement,setting,value
CC1=NN(c2ccccc2)C(=O)C1 [EDARAVONE],Drug metabolism,[1],metabolite_detected
same,clearance,[2],1.6 µL/min/mg
same,CL(high),[3],42.4 µL/min/mg
same,CL(low),[3],0.8 µL/min/mg
same,Drug metabolism,[4],metabolite_detected
same,Km,[5]; read-out: KmH,8.7 µM
same,Km,[5]; read-out: KmL,1470 µM
same,CL(high),[6],78.5 µL/min/mg
same,CL(low),[6],3.6 µL/min/mg
same,Cmax,[7],6 µM
same,Drug metabolism,[8],metabolite_not_detected
same,Km,[9]; read-out: KmH,36.7 µM
same,Km,[9]; read-out: KmL,5880 µM
same,Km,[10]; read-out: KmH,8.4 µM
same,Km,[10]; read-out: KmL,1350 µM
